Data as given in US20140288040A1, “SUBSTITUTED BENZYLAMINE COMPOUNDS, THEIR USE IN MEDICINE, AND IN PARTICULAR THE TREATMENT OF HEPATITIS C VIRUS (HCV) INFECTION” (ASTEX THERAPEUTICS LIMITED, priority 2011, published 2014).
Counter-ions that a name gives are not always drawn. Like-named read-outs stand apart in the source and are kept apart here.

Target: T1, HCV NS3 protease (full length NS34a) (Hepatitis C virus genotype 1b, UniProt P26663)
T1 construct: The protease activity of the full length NS34a was measured using a FRET-based assay; made in house
Assay: HCV NS3 protease assay (FRET, full length NS34a)
Format: biochemical
Procedure: The HCV NS3 protease functions have been extensively studied and are considered as potential targets for antiviral therapy: see for example the many references listed in the introductory section of this application. Therefore, the activity of the compounds of the invention as anti-HCV agents was assessed using a full length HCV NS3 protease.
The protease activity of the full length NS34a was measured using a FRET-based assay utilizing a peptide substrate derived from the NS4AB cleavage site (Anaspec) and labelled at one end with a quencher (QXL520) and at the other with a fluorophore (5-FAMsp). NS34a (produced in-house by literature methods) was incubated with test compounds and peptide substrate in 50 mM Tris pH8, 20 mM DTT, 1% CHAPS, 10% glycerol and 5% DMSO. The reaction was followed by monitoring the change in fluorescence on a Molecular Devices Gemini plate reader for 30 minutes at room temperature. Initial rates were calculated from the progress curves using SoftMax Pro (Molecular Devices). IC50 values were then calculated from replicate curves using Prism GraphPad software.

[1] = protease activity of full length NS34a, FRET peptide substrate, read-out: Activity IC50
[2] = IC50 values of 10-150 μM against the protease activity of the full length NS34a, or at least 40% inhibition of protease activity at a concentration of 100 μM

T1 sequence (P26663 1658-1711): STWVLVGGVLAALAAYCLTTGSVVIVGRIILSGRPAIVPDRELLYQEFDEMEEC
T1 sequence (P26663 1027-1657): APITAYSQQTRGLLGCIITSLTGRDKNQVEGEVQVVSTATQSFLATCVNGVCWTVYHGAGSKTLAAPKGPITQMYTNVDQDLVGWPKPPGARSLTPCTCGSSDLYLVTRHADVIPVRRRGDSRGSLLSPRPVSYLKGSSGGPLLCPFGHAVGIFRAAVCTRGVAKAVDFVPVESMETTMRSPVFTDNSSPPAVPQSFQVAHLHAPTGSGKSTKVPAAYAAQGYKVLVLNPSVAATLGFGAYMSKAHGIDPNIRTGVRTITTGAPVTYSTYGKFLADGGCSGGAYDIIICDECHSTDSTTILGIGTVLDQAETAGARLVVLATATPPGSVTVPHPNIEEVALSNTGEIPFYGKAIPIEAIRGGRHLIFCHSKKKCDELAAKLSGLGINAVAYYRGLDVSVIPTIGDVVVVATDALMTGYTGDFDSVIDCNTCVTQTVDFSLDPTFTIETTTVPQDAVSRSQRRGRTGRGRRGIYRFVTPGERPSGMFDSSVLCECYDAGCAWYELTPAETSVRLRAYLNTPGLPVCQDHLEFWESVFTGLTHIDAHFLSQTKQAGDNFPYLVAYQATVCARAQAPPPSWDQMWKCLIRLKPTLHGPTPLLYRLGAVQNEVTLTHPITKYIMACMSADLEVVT

IC50 [1]	IC50 [2]	Structure (SMILES)
2 µM		N[C@@H](CCO)c1ccc(Cl)c(Oc2ccccc2)c1F [Example 338, 3-Amino-3-(4-chloro-2-fluoro-3-phenoxy-phenyl)-propan-1-ol.hydrochloride]
	10 to 150 µM	CC[C@@H](N[C@H](C)CC(N)=O)c1ccc(Cl)c(Oc2cccc(CNS(C)(=O)=O)c2)c1F [Example 217]
1.4 µM		C[C@@H](CC(N)=O)NCc1ccc(Cl)c(Oc2ccccc2)c1F [Example 328]
0.32 µM		C[C@@H](CC(=O)NCCN)N[C@@H](CC1CCOCC1)c1ccc(Cl)c(Oc2ccccc2)c1F [Example 352]
	10 to 150 µM	CC[C@@H](N[C@@H](C)CC(=O)N(C)OC)c1ccc(Cl)c(Oc2ccccc2)c1F [Example 161]
	10 to 150 µM	C[C@H](CC(N)=O)N[C@H](C)c1ccc(Cl)c(Oc2ccccc2)c1F [Example 335]
3.4 µM		CC[C@@H](N[C@H](C)CC(=O)N[C@H](C)CO)c1ccc(Cl)c(Oc2ccccc2)c1F [Example 208]
2.7 µM		C[C@H](N)c1ccc(Cl)c(Oc2ccccc2)c1F [Example 342]
	10 to 150 µM	CN[C@H](CCOC)c1ccc(Cl)c(Oc2ccccc2)c1F [Example 359]
	10 to 150 µM	CC[C@@H](N[C@H](C)CC(=O)N[C@@H](C)CO)c1ccc(Cl)c(Oc2ccccc2)c1F [Example 205]
	10 to 150 µM	CC[C@@H](N[C@H](C)CC(=O)N(C)OC)c1ccc(Cl)c(Oc2ccccc2)c1F [Example 160]
	10 to 150 µM	C[C@H](CC(N)=O)N[C@H](CC1CCOCC1)c1ccc(Cl)c(Oc2ccccc2)c1F [Example 257]
	10 to 150 µM	CC[C@@H](N[C@@H](C)CC(=O)N[C@H]1C[C@@H](N)C1)c1ccc(Cl)c(Oc2ccccc2)c1F [Example 320]
	10 to 150 µM	C[C@@H](CC(N)=O)N[C@@H](c1ccc(Cl)c(Oc2ccccc2)c1F)C1CCOCC1 [Example 299]
	10 to 150 µM	CC[C@@H](N[C@@H](C)C(=O)N(C)C)c1ccc(Cl)c(Oc2ccccc2)c1F [Example 332]
	10 to 150 µM	CC[C@@H](N[C@H](C)CC(=O)NC)c1ccc(Cl)c(Oc2ccccc2)c1F [Example 131B, (R)-3-[(R)-1-(4-Chloro-2-fluoro-3-phenoxy-phenyl)-propylamino]-N-methyl-butyramide. hydrochloride]
	10 to 150 µM	C[C@H](CC(N)=O)N[C@@H](CC1CCOCC1)c1ccc(Cl)c(Oc2ccccc2)c1F [Example 258]
0.91 µM		C[C@@H](CC(N)=O)N[C@H](CCO)c1ccc(Cl)c(Oc2ccccc2)c1F [Example 358]
	10 to 150 µM	CC[C@@H](N[C@@H](CC(N)=O)C(C)C)c1ccc(Cl)c(Oc2ccccc2)c1F [Example 142]
0.08 µM		C[C@H](CC(=O)NCCN)N[C@H](C)c1ccc(Cl)c(Oc2ccccc2)c1F [Example 340]
	10 to 150 µM	CC[C@@H](N[C@H](C)CC(N)=O)c1ccc(Cl)c(Oc2cccc(CO)c2)c1F [Example 117]

The next lines start with the molecule.

Structure (SMILES)	IC50 [1]	IC50 [2]
CC[C@@H](N)c1ccc(Cl)c(Oc2ccc(/C=N/O)cc2)c1F [Example 204, 4-[3-((R)-1-Amino-propyl)-6-chloro-2-fluoro-phenoxy]-benzaldehyde oxime.hydrochloride]	0.72 µM	
CC[C@@H](N)c1ccc(Cl)c(Oc2cccc(CNC(C)=O)c2)c1F [Example 173]	3.5 µM	
CC[C@@H](N)c1ccc(Cl)c(Oc2ccc(F)c(C(N)=O)c2)c1F [Example 227, 5-[3-((R)-1-Amino-propyl)-6-chloro-2-fluoro-phenoxy]-2-fluoro-benzamide (R isomer).hydrochloride]	2.2 µM	
CC[C@@H](N)c1ccc(Cl)c(Oc2ccc(C#N)cc2)c1F [Example 158]	0.42 µM	
CC[C@@H](N)c1ccc(Cl)c(Oc2cccc(S(C)(=O)=O)c2)c1F [Example 170]	2.3 µM	
CC[C@@H](N)c1ccc(Cl)c(Oc2ccc(C(C)OC)cc2)c1F (some centres unmarked) [Example 184]	6.1 µM	
CC[C@@H](N)c1ccc(Cl)c(Oc2ccc3c(c2)CCO3)c1F [Example 193]	0.96 µM	
NC(CO)c1ccc(F)c(Oc2ccccc2)c1F (centres unmarked) [Example 46, 2-Amino-2-(2,4-difluoro-3-phenoxy-phenyl)-ethanol. hydrochloride]		10 to 150 µM
CC[C@H](Nc1cccc2c1CNC2)c1ccc(F)c(Oc2ccccc2)c1F [Example 136, [(S)-1-(2,4-Difluoro-3-phenoxy-phenyl)-propyl]-(2,3-dihydro-1H-isoindol-4-yl)-amine.hydrochloride]	1.1 µM	
CC[C@@H](N[C@@H](C)c1[nH]cnc1C)c1ccc(Cl)c(Oc2ccccc2)c1F [Example 148]	1.7 µM	
CC[C@@H](N)c1ccc(Cl)c(Oc2cccc([N+](=O)[O-])c2)c1F [Example 152]	6.9 µM	
CC[C@H](Nc1ncc(CN)cn1)c1ccc(Cl)c(Oc2ccccc2)c1F [Example 330]	1.1 µM	
CS(=O)(=O)Nc1cccc(Oc2c(F)ccc(C(N)CC3CCNCC3)c2F)c1 (centres unmarked) [Example 108B, N-{3-[3-(1-Amino-2-piperidin-4-yl-ethyl)-2,6-difluoro-phenoxy]-phenyl}-methane-sulfonamide.dihydrochloride]	1.9 µM	
CC[C@@H](N)c1ccc(Cl)c(Oc2ccc(S(C)(=O)=O)cc2)c1F [Example 174]	6.2 µM	
CC[C@@H](N)c1ccc(Cl)c(Oc2ccnc(Cl)c2)c1F [Example 167]	6.1 µM	
CCC(NCCOC)c1ccc(F)c(Oc2ccccc2)c1F (centres unmarked) [Example 42, [1-(2,4-Difluoro-3-phenoxy-phenyl)-propyl]-(2-methoxy-ethyl)-amine. hydrochloride]		10 to 150 µM
CCNC(=O)O[C@@H](C)c1cccc(Oc2c(Cl)ccc([C@@H](N)CC)c2F)c1 [Example 140]	1.3 µM	
CC[C@@H](N[C@H](C)CC(N)=O)c1ccc(Cl)c(Oc2ccc(C#N)c(F)c2)c1F [Example 214]		10 to 150 µM
CC[C@@H](N[C@H](C)CC(N)=O)c1ccc(Cl)c(Oc2ccc(C#N)c(OC)c2)c1F [Example 209]	4.9 µM	
CC[C@H](Nc1ccncc1)c1ccc(F)c(Oc2ccccc2)c1F [Example 144, [(S)-1-(2,4-Difluoro-3-phenoxy-phenyl)-propyl]-pyridin-4-yl-amine. hydrochloride]	0.4 µM	
C=CCNC(CC)c1ccc(F)c(Oc2ccccc2)c1F (centres unmarked) [Example 39, Allyl-[1-(2,4-difluoro-3-phenoxy-phenyl)-propyl]-amine. hydrochloride]		10 to 150 µM

Structure (SMILES)	IC50 [1]	IC50 [2]
CCC(NCc1ncc[nH]1)c1ccc(F)c(Oc2ccccc2)c1F (centres unmarked) [Example 292]		10 to 150 µM
CC[C@@H](N)c1ccc(Cl)c(Oc2ccc(C3(C#N)CC3)cc2)c1F [Example 192]	3.1 µM	
CCC(CC)[C@@H](N)c1ccc(Cl)c(Oc2ccccc2)c1F [Example 346]	5 µM	
CC[C@H](N)c1ccc(Cl)c(Oc2cccc(C(C)O)c2)c1F (stereo partly drawn) [Example 132B, 1-{3-[3-((S)-1-Amino-propyl)-6-chloro-2-fluoro-phenoxy]-phenyl}-ethanol.hydrochloride]	0.52 µM	
CC[C@@H](N)c1ccc(Cl)c(Oc2cccc(NS(C)(=O)=O)c2)c1F [Example 151]	3.1 µM	
CC[C@@H](N[C@H](C)CC(N)=O)c1ccc(Cl)c(Oc2ccc3c(c2)OCC3)c1F [Example 232]	1.8 µM	
CC[C@@H](N)c1ccc(Cl)c(Oc2ccc(CO)cc2)c1F [Example 183]	1.2 µM	
CC[C@@H](N)c1ccc(Cl)c(Oc2ccc(C#N)c(F)c2)c1F [Example 166]	2.1 µM	
CC[C@H](N)c1ccc(Cl)c(Oc2cccc(C(=O)N(C)Cc3cn[nH]c3)c2)c1F [Example 141, 3-[3-((S)-1-Amino-propyl)-6-chloro-2-fluoro-phenoxy]-N-methyl-N-(1H-pyrazol-4-ylmethyl)-benzamide.hydrochloride]	2.8 µM	
CC[C@@H](N)c1ccc(Cl)c(Oc2ccc3c(c2)C(C)(C)CN3)c1F [Example 270]	1.6 µM	
CC[C@@H](N[C@H](C)CC(N)=O)c1ccc(Cl)c(Oc2ccc(-c3cnco3)cc2)c1F [Example 220]	4.6 µM	
CCC(NC1CCCC1)c1ccc(F)c(Oc2ccccc2)c1F (centres unmarked) [Example 30]		10 to 150 µM
CC[C@@H](N[C@H](C)CC(N)=O)c1ccc(Cl)c(Oc2ccc3c(c2)C(C)(C)CN3)c1F [Example 323]	3.1 µM	
CC[C@@H](N)c1ccc(Cl)c(Oc2cccc(C(N)=O)c2)c1F [Example 172]	3.7 µM	
CCC(NCc1cnc(C)n1C)c1ccc(F)c(Oc2ccccc2)c1F (centres unmarked) [Example 23]		10 to 150 µM
CC[C@@H](N[C@H](C)c1c[nH]cn1)c1ccc(Cl)c(Oc2ccccc2)c1F [Example 130]	1.3 µM	
CC[C@@H](N[C@@H](C)CC(N)=O)c1ccc(Cl)c(Oc2ccc(F)cc2N)c1F [Example 334]		10 to 150 µM
CCNC(=O)O[C@H](C)c1cccc(Oc2c(Cl)ccc([C@@H](N)CC)c2F)c1 [Example 139, Ethyl-carbamic acid (R)-1-{3-[3-((S)-1-amino-propyl)-6-chloro-2-fluoro-phenoxy]-phenyl}-ethyl ester.hydrochloride]	1.3 µM	
CC[C@@H](N[C@H](C)CC(N)=O)c1ccc(Cl)c(Oc2ccc([N+](=O)[O-])cc2)c1F [Example 202]	5.4 µM	
CC[C@H](N)c1ccc(Cl)c(Oc2cccc(C(=O)N(C)Cc3cnn(Cc4ccccc4)c3)c2)c1F [Example 138, 3-[3-((S)-1-Amino-propyl)-6-chloro-2-fluoro-phenoxy]-N-(1-benzyl-1H-pyrazol-4-ylmethyl)-N-methyl-benzamide.hydrochloride]	0.63 µM	
